The values below come from patent US4109011A, “Insecticide carbamates of N-(polychloroallyl)-amino-phenols” (priority 1975, dated 1978).

Holding throughout (format): in vivo
The subject of test [1] is Pieris Brassicae. The test is described as follows: Persistence of insecticidal activity in the field, Pieris brassicae on cauliflower plants. Conditions: 0.5 percent; for mortality at 0.5 %: read-out: Mortality Percent of Pieris Brassicae Larvae. The text has this: The persistence of insecticidal activity in the field using the insect Pieris brassicae was examined as follows:
Cauliflower plants grown under natural conditions in the field were sprinkled with an aqueous suspension of compounds according to this invention identified hereinabove as M 7361 and M 8157. For purposes of comparison, cauliflower plants were sprinkled with an aqueous suspension of a compound according to U.S. Pat. No. 3,819,678, identified hereinabove as M 7481.
After the respective time periods shown in Table 15, leaves of the sprinkled plants were picked and brought to the laboratory where they were infested with 10-day old larvae of Pieris brassicae and then kept under observation. The percent of mortality of the insects was determined 48 hours after infestation in all cases. The percent mortality of the control, unsprinkled cauliflower leaves, was zero.

Test [2] has as its system Spodoptera Littoralis. Kind of test: Persistence of insecticidal activity in the field, Spodoptera littoralis on Ricinus plants. Conditions: one percent, read-out: Mortality Percent of Spodoptera Littoralis Larvae. An excerpt:
The persistence of insecticidal activity in the field using the insect Spodoptera littoralis was examined as follows:
Ricinus plants grown in the field under natural conditions were sprinkled with an aqueous suspension of the insecticidal compounds according to this invention designated hereinabove as M 7361 and M 8157. For purposes of comparison, an aqueous suspension of each of M 7481 and M 7488, according to U.S. Pat. No. 3,819,678 and identified above, was sprinkled on similarly grown Ricinus plants.
After the time periods shown in Table 16, leaves of the sprinkled plants were picked and brought to the laboratory where they were infested with 10-day old larvae of Spodoptera littoralis and then kept under observation. The mortality percent of the control unsprinkled leaves was zero.

In test [3] the test system is Leptinotarsa decemlineata. Kind of test: Persistence of insecticidal activity in the field, Leptinotarsa decemlineata on potato plants. Conditions: 0.2 percent. An excerpt:
The persistence of insecticidal activity in the field using the insect Leptinotarsa decemlineata was examined as follows:
Potato plants grown in the field under natural conditions were sprinkled with an aqueous suspension of compound M 7361 which is according to this invention and identified hereinabove. For purposes of comparison, similarly grown potato plants were sprinkled with an aqueous suspension of the compounds M 7488 and M 7481, respectively, both according to U.S. Pat. No. 3,819,678 and identified above.
After the time periods shown in Table 17, leaves of the sprinkled plants were picked and brought to the laboratory where they were infested with 10 day-old larvae of Leptinotarsa decemlineata and then kept under observation. After 48 hours, the percent of mortality of the insects was determined. The mortality percent of the control unsprinkled leaves was zero.

Test [4] relates to Spodoptera Littoralis. The test is described as follows: Biological activity on Spodoptera littoralis larvae, sprayed cut tobacco leaves. The settings on record: 0.1 percent, larvae, 48 hours, read-out: Percent of Mortality. The text has this: Biological Activity on Spodoptera Littoralis (Lepidoptera)
Cut tobacco leaves were sprayed with a 0.1% aqueous dispersion of compounds according to the present invention, shown in Table 12. After drying, the leaves were infested with 5-day old lepidopter larvae. The mortality percentage of the control was zero.
(§1) To show the variation in activity from one compound to another, depending on the species used, the activities of compounds according to this invention were investigated at different concentrations, expressed as percent of active principle, on various infesting species. The mortality percentage was computed in the same way as in the preceding examples.

Test [5] concerns Tetranychus Urticae. Kind of test: Biological activity on Tetranychus urticae eggs, bean leaf discs. Conditions: foliar, read-out: Percent of Mortality.
Source text: Biological Activity on Tetranychus Urticae (Acari)
Small discs of bean leaves were infested with acarus eggs and successively treated by spraying with an aqueous dispersion of a compound of this invention and Aminocarb as a comparison, at concentrations of 0.1 and 0.01%. The mortality percentage of the control, untreated discs, was zero.
as §1

In test [6] the test system is Pieris Brassicae. The test is described as follows: Biological activity on Pieris brassicae larvae, sprayed cut cauliflower leaves. Conditions: 0.1 percent, larvae, read-out: Percent of Mortality.
Source text: Biological Activity on Pieris Brassicae (Lepidoptera)
Cut leaves of cauliflower were sprayed with an aqueous dispersion of compound according to this invention at a 0.1% concentration. After drying, they were infested with 5-day old larvae. The mortality percentage of the control, untreated leaves, was zero.
as §1

Test [7] has as its system Musca Domestica. Kind of test: Biological activity on Musca domestica, topical application to adults. Conditions: 24 h, read-out: Percent of Mortality. The procedure:
Biological Activity on Musca Domestica (Diptera)
Four day old adults were treated by topical application through a microsyringe with 1 mm^3 of an acetonic solution of the compounds shown in such concentrations that they received doses of 5γ/insect; 2γ/insect; 0.5γ/insect of active principle. The mortality percentage 24 hours after the treatment is reported in Table 8 (mortality of insects treated with 1 mm^3 of acetone = 0).

In test [8] the test system is Macrosiphum Euphorbiae. The test is described as follows: Biological activity on Macrosiphum euphorbiae (aphides), potato seedlings sprayed with aqueous dispersion. Conditions: 24 h, read-out: Mortality Percent. The protocol: Biological Activity on Macrosiphum Euphorbiae (Aphides)
Potato seedlings, cultivated in pots, were infested with adult aphide females and, after a few hours, were sprayed with an aqueous dispersion of the compounds listed in Table 6. The mortality percentage was determined 24 hours after the treatment (on control non-treated seedlings, the mortality percentage was 0).
as §1

In test [9] the test system is Culex Pipiens. The test is described as follows: Biological activity on Culex pipiens (mosquito larvae in aqueous dispersion). Conditions: 24 h, read-out: Percent of Mortality.
Source text: Biological Activity on Culex Pipiens (Diptera)
Mosquito larvae of the third and fourth ages were introduced into glass pots containing an aqueous dispersion of the compounds shown at 2 ppm and 0.2 ppm.
as §1

In test [10] the test system is Leptinotarsa Decimlineata. The test is described as follows: Biological activity on Leptinotarsa decemlineata larvae, sprayed potato seedlings. The settings on record: read-out: Percent of Mortality.
Source text: Biological Activity on Leptinotarsa Decimlineata Coleoptera
Potato seedlings cultivated in pots were infested with 4-day old larvae and sprayed with an aqueous dispersion of the compounds according to this invention and Aminocarb as a comparison at doses of […]; respectively. The mortality percentage of the control, untreated seedlings, was zero.
as §1

Test [11] has as its system Leptinotarsa Decimlineata. The description is as above. Conditions: read-out: Percent of Mortality. The source holds these as a separate data set.
The mark [12] stands for this setting: 120 h, 5 days after field treatment.
The mark [13] stands for this setting: 216 h, 9 days after field treatment.
The mark [14] stands for this setting: 336 h, 14 days after field treatment.
[15] abbreviates: 408 h, 17 days after field treatment.
Setting [16] is: 528 h, 22 days after field treatment.
Setting [17] is: 264 h, 11 days after field treatment.
The mark [18] stands for this setting: 432 h, 18 days after field treatment.
Where [19] appears, read: 600 h, 25 days after field treatment.
[20] abbreviates: 96 h, 4 days after field treatment.
The mark [21] stands for this setting: 168 h, 7 days after field treatment.

Like-named read-outs stand apart in the source and are kept apart here.

Regarding `CNC(=O)Oc1cc(C)c(N(C)CC=C(Cl)Cl)c(C)c1` [M 7481, reference compound], the “time after which totally ineffective in the field” value in [1] is on record as 14 days. Moreover, the “time at which activity begins to be lost in the field” value in test [1] was in the range of 2 to 5 days. Further, the mortality (commonly the share of the test organisms that died) at 0.5 % in test [1] (2 hours after field treatment) was found to be 100%; in test [1] (setting [12]), 55%; in [1] (setting [13]) it was 30%; in [1] (setting [14]), 0%; in [1] (setting [15]), 0%; in test [1] (setting [16]) it was 0%. The mortality at 1 % turned out to be 100% in test [2] (setting [12]); 77% in test [2] (setting [17]); 60% in [2] (setting [14]); 47% in test [2] (setting [18]); 40% in test [2] (setting [19]); 100% in test [2] (2 hours after field treatment). Further, the mortality at 0.2 % in test [3] (2 hours after field treatment) is 100%; in test [3] (setting [20]), 60%; in test [3] (setting [21]) it was 20%; in test [3] (setting [17]), 0%; in test [3] (setting [18]), 0%; in test [3] (setting [19]), 0%.
For the molecule `CNC(=O)Oc1ccc(NCC(Cl)=C(Cl)Cl)c(C)c1` [M 6737], the mortality at 0.1 % in test [4], in test [5] and in [6] was 100% each time. The mortality at 0.01 % in test [5] was found to be 80%.
Consider `CNC(=O)Oc1ccc(NCC=C(Cl)Cl)c(C)c1` [M 6432], for which the mortality at 0.1 % in [4] and in [6] was 100% in each case.
Consider `CNC(=O)Oc1cc(C)c(N(C)C)c(C)c1` [Zectran, reference compound], for which, in test [7], the mortality at 0.5 µg/insect amounted to 0% and the mortality at 2 µg/insect amounted to 60%.
As for `CNC(=O)Oc1cc(C)c(N(CC=C(Cl)Cl)CC=C(Cl)Cl)c(C)c1` [M 7488, reference compound], the mortality at 1 % worked out at 92% in [2] (setting [12]); 47% in test [2] (setting [17]); 38% in [2] (setting [14]); 22% in [2] (setting [18]); 0% in test [2] (setting [19]); 100% in test [2] (2 hours after field treatment). Also, the mortality at 0.2 % in test [3] (2 hours after field treatment) was determined as 100%; in test [3] (setting [20]), 70%; in test [3] (setting [21]), 20%; in [3] (setting [17]) it was 10%; in test [3] (setting [18]), 0%; in [3] (setting [19]), 0%.
Turning to `CNC(=O)Oc1cc(C)c(NCC(Cl)=C(Cl)Cl)c(C)c1` [M 8157], the “period for which insecticidal activity is fully retained in the field” value in test [1] is reported as “at least 22 days”. The mortality at 0.5 % in test [1] (2 hours after field treatment), in test [1] (setting [12]), in test [1] (setting [13]), in test [1] (setting [14]), in test [1] (setting [15]) and in [1] (setting [16]) was 100% each time. For the same molecule, the mortality at 1 % in [2] (setting [12]), in test [2] (setting [17]), in test [2] (setting [14]), in [2] (setting [18]), in test [2] (setting [19]) and in [2] (2 hours after field treatment) was 100% in each case.
For `CNC(=O)Oc1cc(C)ccc1NCC(Cl)=C(Cl)Cl` [M 6773, N-methylcarbamate of 3-methyl-6-(2,3,3-trichloroallylamino)-phenol], the mortality at 0.01 % in [8] came out at 75%.
With `CNC(=O)Oc1cccc(NCC(Cl)=C(Cl)Cl)c1` [M 6740], in test [9], the mortality at 2 ppm was determined as 100%. Further, the mortality at 0.1 % in test [10] is 100%. Besides, the mortality at 0.01 % in test [11] was 100%.
